The source of these data is patent publication US9101613B2, “Methods for treating neurological disease” (Neurim Pharmaceuticals (1991) Ltd., priority 2006, dated 2015).

Structures are written as SMILES.

For one series, the system named is C57BL/6 mice. As to the kind of experiment: MPTP mouse model of Parkinson's disease, open field test. The format is in vivo. From the text:
Three-month-old male C57BL/6 mice were housed in groups of 5 animals per cage (50 cm×25 cm×20 cm) in a temperature- and humidity-controlled environment with ad libitum access to food and water. Animals were maintained on a 12 hr light/dark schedule, with lights on at 7 A.M.
Six groups of mice were used: (1) the control mice treated with saline and vehicle (n=10), (2) the N-[2-(5-methoxy-indol-3-yl)-ethyl]-comanilamide control mice treated with saline and N-[2-(5-methoxy-indol-3-yl)-ethyl]-comanilamide at 100 or 200 mg/kg (n=5, respectively), (3) the MPTP mice treated with MPTP and vehicle (n=10) and (4) the N-[2-(5-methoxy-indol-3-yl)-ethyl]-comanilamide-treated MPTP mice treated with MPTP and N-[2-(5-methoxy-indol-3-yl)-ethyl]-comanilamide at 100 or 200 mg/kg (n=10, respectively). Mice received daily (i.p.) injections of saline or MPTP (30 mg/kg/day) dissolved in physiological saline for five consecutive days to induce Parkinsonism. […]
For the open field test, the mice were taken from their home cages and transported to the locomotor test chambers (40×40×50 cm) for 5 min and their behaviors were recorded as digital videos. The digital videos then were analyzed off-line. The distance of each mouse traveling in the locomotor test chamber was analyzed by the commercial software.

The next series deals with PC12 cells. Description: Glutamate-induced loss of cell viability in PC12 cells (MTT). The format is cell-based. As to the method: For the cell viability assays, 24 h after seeding in 96-well plates, the cultures were pretreated with N-[2-(5-methoxy-indol-3-yl)-ethyl]-comanilamide (100 pm, 1 nM, 10 nM, 100 nM, 1 uM and 10 uM) or melatonin (1 uM) for 0 h before exposure to 4 mM glutamate. After 24 h incubation, cellular viability was evaluated by MTT assay.
PC12 cell viability was determined by the conventional 3-(4,5-dimethylthiazol-2-yl)-2,5-diphenyltetrazolium bromide (MTT) assay. PC12 cells were treated with MTT solution (0.5 mg/ml) and were then incubated at 37° C. for 4 hrs. The medium was removed and 150 μl DMSO/well was added to dissolve formazan. The absorbance at 570 nm was recorded using an enzyme-linked immunosorbent assay reader and the percentage of cell growth inhibition was calculated as follows: Cell viability (%)=A570 (treatment)/A570 (control)×100.

In the case of `COc1ccc2[nH]cc(CCNC(=O)c3cc(=O)cco3)c2c1` [N-[2-(5-methoxy-indol-3-yl)-ethyl]-comanilamide], the “traveled distance, open field test, vs MPTP mice” value in the series on C57BL/6 mice (MPTP mice, 100 or 200 mg/kg i.p. once per day, day 14, both p<0.01) was “showed more level of the traveled distance”. Further, the “traveled distance, open field test, vs control mice” value in the series with C57BL/6 mice (saline mice, 100 or 200 mg/kg i.p., both p>0.05) is reported as “no significant difference in the traveled distance”. In addition, the “effect on cell viability without glutamate” value in the series with PC12 cells (10 uM, without glutamate) is reported as “had no effect on the cell viability”. The “effect on glutamate-induced loss of cell viability” value in the series on PC12 cells (100 pm to 10 uM, all doses, 4 mM glutamate, 24 h, MTT) was “significantly attenuated glutamate-induced loss of cell viability”.
